Measured values reported in article PMC6193035, “Novel small molecules affecting cell membrane as potential therapeutics for avian pathogenic Escherichia coli” (Scientific Reports, 2018).
In brackets after ≈: the same amount, converted by molar mass. Marks after values point to notes of the source that are not given here.

Tests used:
APEC O2 = test: MIC and MBC determination in M63 media; type: cell-based; conditions: Escherichia coli
APEC O2-211 = test: MIC and MBC determination in M63 media; type: cell-based; conditions: Escherichia coli; APEC O2-211, M63 media
APEC O109 = test: MIC and MBC determination in M63 media; type: cell-based; conditions: Escherichia coli
APEC O1 = test: MIC and MBC determination in M63 media; type: cell-based; conditions: Escherichia coli
[1] = system: biofilm embedded APEC O78; test: MBEC High-throughput (HTP) assay; type: cell-based, Escherichia coli; conditions: 18 h challenge in M63 media
Experimental: The effect of cidal SMs against biofilm embedded APEC was determined using MBEC High-throughput (HTP) assay (Innovotech Inc., AB, Canada)[22]. Briefly, 150 μL of 0.05 OD600 adjusted APEC O78 culture was aliquoted into each well of the MBEC device containing polystyrene pegs and incubated at 37 °C for 36 h in LB media under stationary condition. […] The plate was incubated in the dark for 18 h at 37 °C with rotation at 110 rpm. The DMSO (1%) and […] media were used as positive and negative controls, respectively. Following incubation, MIC of SMs in challenged plate was recorded. The SMs exposed pegs were then transferred to a new 96-well plate containing PBS and sonicated for 30 mins (Aquasonic ultrasonic cleaner, VWR) to disrupt the biofilm. The sonicated suspensions were ten-fold serially diluted and plated on LB agar plate. Biofilm embedded APEC bacteria were enumerated and minimum biofilm eradication concentration (MBEC) of SMs were determined as described previously. Two independent experiments were conducted.

APEC O1-63 = test: MIC and MBC determination in M63 media; type: cell-based; conditions: Escherichia coli; APEC O1-63, M63 media
APEC O78 [2] = test: MIC and MBC determination in M63 media; type: cell-based, Escherichia coli; conditions: for MIC / MBC: Escherichia coli; for MBC: subculture on LB agar
Experimental: (§1) One microlitre SM of each concentration was transferred to each well of a 96-well plate containing 100 µL of the 0.05 OD600 adjusted APEC O78 culture in M63 media. Growth was monitored in Sunrise - Absorbance microplate reader as described above. MIC was indicated by lowest concentration of SM with non-elevated OD600 measurement. MBC was determined by absence of APEC growth on LB agar plate following subculture. […] Two independent experiments were conducted.

[3] = system: intracellular APEC O1 in HD11 cells; test: Intracellular survival assay; type: cell-based, Escherichia coli; conditions: for minimal effective concentration: Escherichia coli, O1, HD11, 6 h treatment, read-out: SMs intracellular APEC clearance concentration; for concentration at which the SM significantly (P < 0.01) reduced intracellular APEC (superscript of t-statistic): O1, HD11, 6 h
Experimental: (§2) Intracellular survival assay was conducted as described previously[28],[29] to determine the effect of cidal SMs on APEC survival in phagocytic (HD11, THP-1) and non-phagocytic (Caco-2) cells. Briefly, mid-logarithmic phase grown APEC O78, O1, and O2 were washed and adjusted to 1 × 10^7 CFU/mL in cell culture incomplete media (no FBS and antibiotics). One-hundred microlitres adjusted APEC suspension was added at multiplicity of infection (MOI) 10 to wells of 96-well cell culture plate containing cultured macrophage (HD11, THP-1) and epithelial cells (Caco-2) and incubated for 1 h and 3 h, respectively. […] The cells were then lysed with 100 µL of 0.1% Triton X-100 for 5 mins, serially diluted, and plated on LB agar plate to enumerate viable bacteria. The intracellular bacteria in SMs treated wells were compared with DMSO (1%) treated wells. Two independent experiments in duplicate wells for each concentration of SMs were conducted.

[4] = system: intracellular APEC O2 in Caco-2 cells; test: Intracellular survival assay; type: cell-based, Escherichia coli; conditions: for minimal effective concentration: Escherichia coli, O2, Caco-2, 6 h treatment, read-out: SMs intracellular APEC clearance concentration; for concentration at which the SM significantly (P < 0.01) reduced intracellular APEC (superscript of t-statistic): O2, Caco-2, 6 h
Experimental: as §2

[5] = system: intracellular APEC O78 in HD11 cells; test: Intracellular survival assay; type: cell-based, Escherichia coli; conditions: for minimal effective concentration: Escherichia coli, O78, HD11, 6 h treatment, read-out: SMs intracellular APEC clearance concentration; for intracellular APEC clearance concentration as multiple of MIC (superscript): O78, HD11; for concentration at which the SM significantly (P < 0.01) reduced intracellular APEC (superscript of t-statistic): O78, HD11, 6 h
Experimental: as §2

[6] = system: intracellular APEC O1 in THP-1 cells; test: Intracellular survival assay; type: cell-based, Escherichia coli; conditions: for minimal effective concentration: Escherichia coli, O1, THP-1, 6 h treatment, read-out: SMs intracellular APEC clearance concentration; for concentration at which the SM significantly (P < 0.01) reduced intracellular APEC (superscript of t-statistic): O1, THP-1, 6 h
Experimental: as §2

APEC O78-53 = test: MIC and MBC determination in M63 media; type: cell-based; conditions: Escherichia coli; APEC O78-53, M63 media
Experimental: as §1

APEC O35 = test: MIC and MBC determination in M63 media; type: cell-based; conditions: Escherichia coli
APEC O78 [7] = test: Loss of 260/280 nm absorbing materials assay; type: cell-based, Escherichia coli; conditions: 2X MBC, 1 h; for Absorbance 280 nm of treated supernatant: DMSO 2.58; for Absorbance 280 nm of treated supernatant / Absorbance 260 nm of treated supernatant: superscript a P < 0.05 vs DMSO; for Absorbance 260 nm of treated supernatant: DMSO 3.77
Experimental: Membrane permeability assays (crystal violet (CV) uptake and loss of 260/280 nm absorbing materials) were conducted as described previously. […] CV uptake was measured using the formula: (OD DMSO − OD SM/OD DMSO × 100). Two independent experiments in duplicates were conducted.

APEC O8 = test: MIC and MBC determination in M63 media; type: cell-based; conditions: Escherichia coli
APEC O78 [8] = test: Bacterial cytological profiling by confocal microscopy; type: cell-based, Escherichia coli; conditions: 2X MBC, 2 h
Experimental: Confocal microscopy was used for bacterial cytological profiling (BCP) to identify the cellular pathways targeted by SMs as described previously. […] After incubation, treated cultures were centrifuged, washed, and resuspended in 100 µL PBS. FM4-64 (#T13320 Molecular Probes/Invitrogen) (1 µg/mL) and SYTO-9 (#S34854 Molecular Probes/Invitrogen) (5 µM) were added to the bacterial cultures and incubated for 45 mins at room temperature with shaking at 150 rpm. Cultures were then centrifuged, washed, and resuspended in PBS to 1/10th volume of the original cultures.

APEC O15 = test: MIC and MBC determination in M63 media; type: cell-based; conditions: Escherichia coli
APEC O18 = test: MIC and MBC determination in M63 media; type: cell-based; conditions: Escherichia coli

Structure (SMILES)	MBC (APEC O2) [µM]	MIC (APEC O2) [µM]	MBC (APEC O2-211) [µM]	MIC (APEC O2-211) [µM]	MBC (APEC O109) [µM]	MIC (APEC O109) [µM]	MBC (APEC O1) [µM]	MIC (APEC O1) [µM]	MBEC as multiple of MIC (superscript) [1]	MBC (APEC O1-63) [µM]	MIC (APEC O1-63) [µM]	MIC (APEC O78 [2]) [µM]	MBC (APEC O78 [2]) [µM]	minimal effective concentration [3] [µM]	concentration at which the SM significantly (P < 0.01) reduced intracellular APEC (superscript of t-statistic) [3]	minimal effective concentration [4] [µM]	concentration at which the SM significantly (P < 0.01) reduced intracellular APEC (superscript of t-statistic) [4]	minimal effective concentration [5] [µM]	intracellular APEC clearance concentration as multiple of MIC (superscript) [5]	concentration at which the SM significantly (P < 0.01) reduced intracellular APEC (superscript of t-statistic) [5]	also measured
COc1cc(CNCCc2ccc(C)cc2)ccc1OCC(O)CN1CCCC1 (stereo not shown) [SM3]	200 (≈ 79.7 µg/mL)	100 (≈ 39.9 µg/mL)	100 (≈ 39.9 µg/mL)	100 (≈ 39.9 µg/mL)	200 (≈ 79.7 µg/mL)	100 (≈ 39.9 µg/mL)	200 (≈ 79.7 µg/mL)	100 (≈ 39.9 µg/mL)	b (1X MIC)	200 (≈ 79.7 µg/mL)	200 (≈ 79.7 µg/mL)	100 (≈ 39.9 µg/mL)	100 (≈ 39.9 µg/mL)	200	a (0.5X MIC)	> 200	b (1X MIC)	100	a (1X MIC)	a (0.5X MIC)	MBC relative to MIC (APEC O78 [2]): identical to MIC; minimal effective concentration [6]: 200 µM; intracellular APEC clearance concentration as multiple of MIC (superscript) ([6]; O1, THP-1): b (2X MIC); concentration at which the SM significantly (P < 0.01) reduced intracellular APEC (superscript of t-statistic) [6]: a (0.5X MIC); MBC (APEC O78-53): 200 µM (≈ 79.7 µg/mL); MIC (APEC O78-53): 100 µM (≈ 39.9 µg/mL); MBC (APEC O35): 200 µM (≈ 79.7 µg/mL); MIC (APEC O35): 100 µM (≈ 39.9 µg/mL); 280 nm absorbing materials in supernatant compared with DMSO (APEC O78 [7]): significantly (P < 0.05, Student’s t-test) increased; Absorbance 280 nm of treated supernatant (APEC O78 [7]): 2.84^a; Absorbance 260 nm of treated supernatant (APEC O78 [7]): 3.77; MBC (APEC O8): 100 µM (≈ 39.9 µg/mL); MIC (APEC O8): 100 µM (≈ 39.9 µg/mL); cytological profile (FM4-64 / SYTO-9 staining) (APEC O78 [8]): bright red foci at random positions throughout the cell indicating membrane defects (membrane pore formers); MBC (APEC O15): 100 µM (≈ 39.9 µg/mL); MIC (APEC O15): 100 µM (≈ 39.9 µg/mL); MBC (APEC O18): 100 µM (≈ 39.9 µg/mL); MIC (APEC O18): 100 µM (≈ 39.9 µg/mL)
CC1CCC(C(C)C)C(OC(=O)Cn2c[n+](CC(=O)OC3CC(C)CCC3C(C)C)c3ccccc32)C1 (stereo not shown) [SM4]	50	25	25	25	25	25	50	25	a (0.5X MIC)	50	25	25	50	50	b (1X MIC)	100	c (2XMIC)	50	b (2X MIC)	a (0.5X MIC)	intracellular APEC clearance concentration as multiple of MIC (superscript) ([4]; O2, Caco-2): c (4X MIC); minimal effective concentration [6]: > 100 µM; concentration at which the SM significantly (P < 0.01) reduced intracellular APEC (superscript of t-statistic) [6]: b (1X MIC); MBC (APEC O78-53): 50 µM; MIC (APEC O78-53): 25 µM; MBC (APEC O35): 25 µM; MIC (APEC O35): 25 µM; 260 nm absorbing materials in supernatant compared with DMSO (APEC O78 [7]): significantly (P < 0.05, Student’s t-test) increased; 280 nm absorbing materials in supernatant compared with DMSO (APEC O78 [7]): significantly (P < 0.05, Student’s t-test) increased; Absorbance 280 nm of treated supernatant (APEC O78 [7]): 2.69^a; Absorbance 260 nm of treated supernatant (APEC O78 [7]): 3.91^a; MBC (APEC O8): 25 µM; MIC (APEC O8): 25 µM; cytological profile (FM4-64 / SYTO-9 staining) (APEC O78 [8]): absence of FM4-64 stained membrane (membrane disruptors); MBC (APEC O15): 25 µM; MIC (APEC O15): 25 µM; MBC (APEC O18): 50 µM; MIC (APEC O18): 25 µM
